Results: patent US10155259B2 (Merck Sharp & Dohme B.V., priority 2011, dated 2018)

biological target: T1, human FSH receptor (Homo sapiens, UniProt P23945); assay: Antagonistic activity of compounds at the human FSH receptor expressed in CHO cells (CRE-luciferase reporter); assay type: cell-based; details: CHO cells stably transfected with human FSH receptor and CRE/luciferase reporter; together with 49 μM recFSH; 4 hours incubation; 1% DMSO; read-out: IC50 (concentration of test compound causing half-maximal inhibition of the maximally attainable inhibition of the luciferase stimulation)
T1 construct: expressed in transfected cells; host or cells: CHO cells, stably transfected; cotransfected with CRE-luciferase reporter
T1 sequence (P23945 18-695): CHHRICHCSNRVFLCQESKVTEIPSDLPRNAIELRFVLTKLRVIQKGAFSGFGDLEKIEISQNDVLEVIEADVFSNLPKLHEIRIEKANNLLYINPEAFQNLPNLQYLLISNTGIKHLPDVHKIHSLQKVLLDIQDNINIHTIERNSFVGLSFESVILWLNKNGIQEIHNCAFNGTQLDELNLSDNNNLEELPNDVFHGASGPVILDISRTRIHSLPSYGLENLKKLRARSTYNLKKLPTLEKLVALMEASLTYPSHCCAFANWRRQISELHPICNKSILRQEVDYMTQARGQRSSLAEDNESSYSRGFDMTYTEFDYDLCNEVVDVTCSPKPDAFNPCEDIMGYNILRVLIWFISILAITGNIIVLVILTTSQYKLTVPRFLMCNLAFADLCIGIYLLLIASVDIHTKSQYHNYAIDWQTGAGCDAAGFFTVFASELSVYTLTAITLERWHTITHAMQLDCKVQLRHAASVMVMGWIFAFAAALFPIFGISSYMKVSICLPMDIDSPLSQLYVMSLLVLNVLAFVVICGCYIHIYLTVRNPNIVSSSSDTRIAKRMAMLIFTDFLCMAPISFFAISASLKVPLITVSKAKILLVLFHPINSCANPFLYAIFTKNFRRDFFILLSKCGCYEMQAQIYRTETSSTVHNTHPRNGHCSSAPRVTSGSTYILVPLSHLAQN
Description: Antagonistic Activity of Compounds at the Human FSH Receptor Expressed in CHO Cells
Antagonistic activity of the compounds at the human FSH receptor was determined in Chinese Hamster Ovary (CHO) cells stably transfected with the human FSH receptor and cotransfected with a cAMP responsive element (CRE)/promotor directing the expression of a firefly luciferase reporter gene. Binding of the compounds to the Gs protein-coupled FSH receptor will result in an increase of cAMP, which in turn will induce an increased transactivation of the luciferase reporter. The cells (7,500 cells/well of a 384 well plate) were incubated in Dulbecco' minimal essential F12 modified medium (Invitrogen), supplemented with 1 μg/ml bovine insulin, 5 μg/ml human apo-transferrin, 100 U/ml penicillin G and 100 μg/ml streptomycin with the test compounds (concentration between 0.316 nM and 10.0 μM) in duplicate together with […] (which, at this concentration in the absence of test compound, induces 80% of the maximal luciferase stimulation) in a humidified atmosphere (95%) at 5-7% CO2 and 37° C. The final concentration of DMSO was 1%. After 4 hours of incubation, plates were allowed to adjust to room temperature for 1 hour. Then, SteadyLite (PerkinElmer) solution was added to the wells and cells were allowed to lyse for at least 1 hour at room temperature. Subsequently, luciferase activity was measured in a luminescence counter. The signal is expressed as counts per second (cps). The IC50 (concentration of test compound causing half-maximal (50%) inhibition of the maximally attainable inhibition of the luciferase stimulation by the compound) and efficacy of the compounds were determined using the software program MathIQ (version 2.3, ID Business Solutions Limited).

SMILES | IC50 [nM]
COc1cc2c(cc1OC)-c1c(C)c(C(=O)N[C@@H](CO)Cc3c[nH]c4ccccc34)c(-c3ccccc3)n1CC2 [Example 1, (R)—N-(1-hydroxy-3-(1H-indol-3-yl)propan-2-yl)-8,9-dimethoxy-1-methyl-3-phenyl-5,6-dihydropyrrolo[2,1-a]isoquinoline-2-carboxamide] | 100 to 1000
COc1cc2c(cc1OC(C)C)-c1cc(C(=O)NC(C)(CO)Cc3c[nH]c4ccccc34)c(-c3cccc(F)c3)n1CC2 (centres unmarked) [Example 2] | 100 to 1000
COc1cc2c(cc1OC(C)C)-c1cc(C(=O)NC(CO)C3(c4c[nH]c5ccccc45)CC3)c(-c3cccc(F)c3)n1CC2 (centres unmarked) [Example 3] | 100 to 1000
COc1cc2c(cc1OC)-c1cc(C(=O)N[C@@H](CO)Cc3c[nH]c4ccccc34)c(-c3ccccn3)n1CC2 [Example 11] | < 100
COc1cc2c(cc1OC(C)C)-c1cc(C(=O)N[C@@H](CO)Cc3c[nH]c4ccccc34)c(-c3ccc(F)cc3)n1CC2 [Example 13, (R)-3-(4-fluorophenyl)-N-(1-hydroxy-3-(1H-indol-3-yl)propan-2-yl)-9-isopropoxy-8-methoxy-5,6-dihydropyrrolo[2,1-a]isoquinoline-2-carboxamide] | < 100
COc1cc2c(cc1OC(C)C)-c1cc(C(=O)N[C@@H](CO)Cc3c[nH]c4ccccc34)c(-c3cccc(C)c3)n1CC2 [Example 14, (R)—N-(1-hydroxy-3-(1H-indol-3-yl)propan-2-yl)-9-isopropoxy-8-methoxy-3-m-tolyl-5,6-dihydropyrrolo[2,1-a]isoquinoline-2-carboxamide] | < 100
COc1cc2c(cc1OC(C)C)-c1cc(C(=O)N[C@@H](CO)Cc3c[nH]c4ccccc34)c(-c3ccc(N)nc3)n1CC2 [Example 15, (R)-3-(6-aminopyridin-3-yl)-N-(1-hydroxy-3-(1H-indol-3-yl)propan-2-yl)-9-isopropoxy-8-methoxy-5,6-dihydropyrrolo[2,1-a]isoquinoline-2-carboxamide] | 100 to 1000
COc1cc2c(cc1OC(C)C)-c1cc(C(=O)N[C@@H](CO)Cc3c[nH]c4ccccc34)c(-c3cccc(Cl)c3)n1CC2 [Example 16, (R)-3-(3-chlorophenyl)-N-(1-hydroxy-3-(1H-indol-3-yl)propan-2-yl)-9-isopropoxy-8-methoxy-5,6-dihydropyrrolo[2,1-a]isoquinoline-2-carboxamide] | < 100
COc1cc2c(cc1OC(C)C)-c1cc(C(=O)N[C@@H](CO)Cc3c[nH]c4ccccc34)c(CC(C)C)n1CC2 [Example 22, (R)—N-(1-hydroxy-3-(1H-indol-3-yl)propan-2-yl)-3-isobutyl-9-isopropoxy-8-methoxy-5,6-dihydropyrrolo[2,1-a]isoquinoline-2-carboxamide] | < 100
COc1cc2c(cc1OC(C)C)-c1cc(C(=O)N[C@@H](CO)Cc3c[nH]c4ccccc34)c(C=C(C)C)n1CC2 [Example 23, (R)—N-(1-hydroxy-3-(1H-indol-3-yl)propan-2-yl)-9-isopropoxy-8-methoxy-3-(2-methylprop-1-enyl)-5,6-dihydropyrrolo[2,1-a]isoquinoline-2-carboxamide] | < 100
COc1cc2c(cc1OC(C)C)-c1cc(C(=O)N[C@@H](CO)Cc3c[nH]c4ccccc34)c(C(=O)C(C)C)n1CC2 [Example 24, (R)—N-(1-hydroxy-3-(1H-indol-3-yl)propan-2-yl)-3-isobutyryl-9-isopropoxy-8-methoxy-5,6-dihydropyrrolo[2,1-a]isoquinoline-2-carboxamide] | < 100
COc1cc2c(cc1OC(C)C)-c1cc(C(=O)N[C@@H](CO)Cc3c[nH]c4ccccc34)c(C(=O)C(C)(C)C)n1CC2 [Example 25, (R)—N-(1-hydroxy-3-(1H-indol-3-yl)propan-2-yl)-9-isopropoxy-8-methoxy-3-pivaloyl-5,6-dihydropyrrolo[2,1-a]isoquinoline-2-carboxamide] | < 100
CCCC(=O)c1c(C(=O)N[C@@H](CO)Cc2c[nH]c3ccccc23)cc2n1CCc1cc(OC)c(OC(C)C)cc1-2 [Example 26, (R)-3-butyryl-N-(1-hydroxy-3-(1H-indol-3-yl)propan-2-yl)-9-isopropoxy-8-methoxy-5,6-dihydropyrrolo[2,1-a]isoquinoline-2-carboxamide] | < 100

Results, then the molecule that gave them:

IC50 [nM] | SMILES
100 to 1000 | COc1cc2c(cc1OC)-c1cc(C(=O)N[C@@H](CO)Cc3c[nH]c4ccccc34)c(-c3cc(C)cc(C)c3)n1CC2 [Example 4, (R)-3-(3,5-dimethylphenyl)-N-(1-hydroxy-3-(1H-indol-3-yl)propan-2-yl)-8,9-dimethoxy-5,6-dihydropyrrolo[2,1-a]isoquinoline-2-carboxamide]
< 100 | COc1cc2c(cc1OC)-c1cc(C(=O)N[C@@H](CO)Cc3c[nH]c4ccccc34)c(-c3ccccc3)n1CC2 [Example 5, (R)—N-(1-hydroxy-3-(1H-indol-3-yl)propan-2-yl)-8,9-dimethoxy-3-phenyl-5,6-dihydropyrrolo[2,1-a]isoquinoline-2-carboxamide]
< 100 | COc1cc2c(cc1OC)-c1cc(C(=O)N[C@@H](CO)Cc3c[nH]c4ccccc34)c(-c3ccc(F)cc3)n1CC2 [Example 6, (R)—N-(1-hydroxy-3-(1H-indol-3-yl)propan-2-yl)-8,9-dimethoxy-3-(4-fluorophenyl)-5,6-dihydropyrrolo[2,1-a]isoquinoline-2-carboxamide]
< 100 | COc1cc2c(cc1OC)-c1cc(C(=O)N[C@@H](CO)Cc3c[nH]c4ccccc34)c(-c3cccs3)n1CC2 [Example 7, (R)—N-(1-hydroxy-3-(1H-indol-3-yl)propan-2-yl)-8,9-dimethoxy-3-(thiophen-2-yl)-5,6-dihydropyrrolo[2,1-a]isoquinoline-2-carboxamide]
< 100 | COc1ccc(-c2c(C(=O)N[C@@H](CO)Cc3c[nH]c4ccccc34)cc3n2CCc2cc(OC)c(OC)cc2-3)cc1 [Example 8, (R)—N-(1-hydroxy-3-(1H-indol-3-yl)propan-2-yl)-8,9-dimethoxy-3-(4-methoxyphenyl)-5,6-dihydropyrrolo[2,1-a]isoquinoline-2-carboxamide]
100 to 1000 | COc1cc2c(cc1OC)-c1cc(C(=O)N[C@@H](CO)Cc3c[nH]c4ccccc34)c(-c3ccc([N+](=O)[O-])cc3)n1CC2 [Example 9, (R)—N-(1-hydroxy-3-(1H-indol-3-yl)propan-2-yl)-8,9-dimethoxy-3-(4-nitrophenyl)-5,6-dihydropyrrolo[2,1-a]isoquinoline-2-carboxamide]
< 100 | COc1cc2c(cc1OC)-c1cc(C(=O)N[C@@H](CO)Cc3c[nH]c4ccccc34)c(-c3cccc(F)c3)n1CC2 [Example 10, (R)-3-(3-fluorophenyl)-N-(1-hydroxy-3-(1H-indol-3-yl)propan-2-yl)-8,9-dimethoxy-5,6-dihydropyrrolo[2,1-a]isoquinoline-2-carboxamide]
< 100 | COc1cccc(-c2c(C(=O)N[C@@H](CO)Cc3c[nH]c4ccccc34)cc3n2CCc2cc(OC)c(OC)cc2-3)c1 [Example 12, (R)—N-(1-hydroxy-3-(1H-indol-3-yl)propan-2-yl)-8,9-dimethoxy-3-(3-methoxyphenyl)-5,6-dihydropyrrolo[2,1-a]isoquinoline-2-carboxamide]
< 100 | COc1cc2c(cc1OC(C)C)-c1cc(C(=O)N[C@@H](CO)Cc3c[nH]c4ccccc34)c(-c3ccccc3F)n1CC2 [Example 18, 3-(2-fluorophenyl)-N—((R)-1-hydroxy-3-(1H-indol-3-yl)propan-2-yl)-9-isopropoxy-8-methoxy-5,6-dihydropyrrolo[2,1-a]isoquinoline-2-carboxamide]
< 100 | COc1cc2c(cc1OC(C)C)-c1cc(C(=O)N[C@@H](CO)Cc3c[nH]c4ccccc34)c(-c3ccco3)n1CC2 [Example 19, (R)-3-(furan-2-yl)-N-(1-hydroxy-3-(1H-indol-3-yl)propan-2-yl)-9-isopropoxy-8-methoxy-5,6-dihydropyrrolo[2,1-a]isoquinoline-2-carboxamide]
